Laboratory results taken from PubChem BioAssay (NCI).
Several values for one entry are separate records, joined by “and”; a condition that tells them apart may be missing. Equal entries are not always repeated.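 Compound exposure: 48 hours, 5 concentrations, 96-well plates. Here, GI50 denotes the concentration required for 50% inhibition of growth. At the TGI there is no net growth.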

Legend:
Assay in all cases: NCI tumour cell line growth inhibition, 48 h
[1] = system: BT-549 breast
[2] = system: CAKI-1 renal
[3] = system: HOP-62 NSCLC
[4] = system: HS 578T breast
[5] = system: KM12 colon
[6] = system: MDA-MB-231 breast
[7] = system: MDA-MB-435
[8] = system: SN12C renal
[9] = system: SNB-19 CNS
[10] = system: SR leukemia

SMILES	GI50 [1]	TGI [1]	GI50 [2]	TGI [2]	GI50 [3]	TGI [3]	GI50 [4]	TGI [4]	GI50 [5]	TGI [5]	GI50 [6]	TGI [6]	GI50 [7]	TGI [7]	GI50 [8]	TGI [8]	GI50 [9]	TGI [9]	GI50 [10]	TGI [10]
O=c1[nH]cc(CO)c(=O)[nH]1	> 100 µM	> 100 µM	> 100 µM	> 100 µM	> 100 µM	> 100 µM	> 100 µM	> 100 µM	> 100 µM	> 100 µM	> 100 µM	> 100 µM	> 100 µM	> 100 µM	> 100 µM	> 100 µM	> 100 µM	> 100 µM	> 100 µM	> 100 µM
CC(=O)NC1CCCN(O)C(=O)/C=C(/C)CCOC(=O)C(NC(C)=O)CCCN(O)C(=O)/C=C(/C)CCOC(=O)C(NC(C)=O)CCCN(O)C(=O)/C=C(/C)CCOC1=O.[Fe] (stereo not given)	> 100 µM	> 100 µM	> 100 µM	> 100 µM	> 100 µM	> 100 µM	> 100 µM	> 100 µM	> 100 µM	> 100 µM	> 100 µM	> 100 µM	> 100 µM	> 100 µM	> 100 µM	> 100 µM	> 100 µM	> 100 µM	> 100 µM	> 100 µM
Cc1cc(NS(=O)(=O)c2ccc(NC(=O)COc3ccc(-c4cc5ccccc5[nH]4)cc3)cc2)no1	2.12 µM	5.97 µM	2.57 µM	9.28 µM	2.95 µM	7.74 µM	1.98 µM	4.98 µM	1.51 µM	3.24 µM	1.66 µM	4.37 µM	1.38 µM	3.13 µM	2.24 µM	10.4 µM	2.23 µM	8.69 µM	1.67 µM	> 100 µM
CCCCCCCCn1ccc2cc(NC(=O)Cn3cc(CN4CCC(C)CC4)nn3)ccc21	1.53 µM	3.01 µM	1.67 µM	3.15 µM	1.76 µM	3.4 µM	1.6 µM	4.12 µM	1.81 µM	3.39 µM	1.71 µM	3.24 µM	1.65 µM	3.08 µM	1.68 µM	3.16 µM	1.76 µM	3.42 µM	1.9 µM	5.24 µM
Cc1cc(C(=O)N2CCN(C)CC2)c2c(=O)n(-c3ccccc3)c(=O)n(CC(O)CN3CCN(c4ncccn4)CC3)c2n1 (stereo not given)			> 100 µM	> 100 µM	> 100 µM	> 100 µM	> 100 µM	> 100 µM	> 100 µM	> 100 µM	> 100 µM	> 100 µM	> 100 µM	> 100 µM	> 100 µM	> 100 µM	> 100 µM	> 100 µM	9.01 µM	> 100 µM
Cc1ccc2nc3sc(=O)sc3nc2c1		28.7 µM		30 µM		30.6 µM		61.8 µM		28.9 µM		32.1 µM		29.8 µM		29 µM		36.7 µM		80.2 µM
O=c1c(-c2ccc3c(c2)OCO3)coc2c(CO)c(O)ccc12	1.47 µM	3.41 µM			2.07 µM	5.01 µM	2.28 µM	7.12 µM	3.24 µM	13.3 µM	2.01 µM	5.09 µM	4.78 µM	19.5 µM	1.82 µM	5.51 µM	2.87 µM	10.3 µM	2.65 µM	> 100 µM
O=Cc1c[nH]c2ccc(-c3csc4ccccc34)cc12	2.5 µM	8.75 µM	1.93 µM	> 100 µM	3.06 µM	39.9 µM	2.3 µM	9.55 µM	3.39 µM	> 100 µM	6.28 µM	> 100 µM	1.24 µM	3.66 µM			5.98 µM	> 100 µM	1.12 µM	10.9 µM
CC(C)(C)C1CCC(CI)(N=[N+]=[N-])CC1 (stereo not given)				> 100 µM		> 100 µM				> 100 µM						> 100 µM		> 100 µM		> 100 µM
COc1ccc(C2c3cc4c(c(OC)c3CC3OCC(=O)C32)OCO4)cc1OC (stereo not given)	< 0.01 µM	> 100 µM	< 0.01 µM	11.3 µM				46.4 µM	< 0.01 µM	0.221 µM and 1.01 µM	< 0.01 µM	0.123 µM		> 100 µM		> 100 µM	< 0.01 µM	> 100 µM		< 0.01 µM
COC(=O)[C@H]1CC(=O)C=C2CCCC21 (stereo not given in full)				> 100 µM		> 100 µM				> 100 µM						> 100 µM		> 100 µM		
Cc1cc(N2CCN(C)CC2)nc(N(CCNc2ccnc3cc(Cl)ccc23)Cc2ccco2)n1	2.94 µM	11.8 µM			2.63 µM	9.73 µM	4.42 µM	35.7 µM	3.48 µM	13.6 µM	2.46 µM	7.84 µM	1.62 µM	3.39 µM	8.88 µM	21 µM	4.92 µM	16.5 µM	2.09 µM	5.23 µM
Cc1ccc(C)c(NC(=O)C(=O)CC(=O)c2cccc3ccccc23)c1				> 100 µM		> 100 µM				> 100 µM						> 100 µM		> 100 µM		> 100 µM
O=C1C=CC(=O)c2c1cc1ccccc1c2O		21.6 µM		12.7 µM		26.6 µM		38.9 µM		26.4 µM		4.25 µM		19.2 µM		25.2 µM		35.9 µM		
CC(=O)Nc1cc(C(c2ccccc2)c2ccccc2)cc(C(c2ccccc2)c2ccccc2)c1C	8.2 µM	> 100 µM	> 100 µM	> 100 µM	> 100 µM	> 100 µM	28 µM	> 100 µM	6.19 µM	> 100 µM	4.21 µM	> 100 µM	6.81 µM	> 100 µM	27.5 µM	> 100 µM	> 100 µM	> 100 µM		
